Tests used:
NCI-H3122 cells = assay: Cell proliferation assay, NCI-H3122 cells (SRB); assay type: cell-based; settings: Homo sapiens, 72 h exposure
Experimental: (§1) NCI-H3122 or SUP-M2 Cells were plated into 96-well plates (3000-8000/well) in complete medium. After incubation overnight, cells were exposed to various concentrations of compound for further 72 h. Cell proliferation was evaluated by SRB assay (for NCI-H3122 cell) or Cell Counting Kit-8 assay (CCK-8, DOJINDO Molecular Technologies, Inc.) (for SUP-M2 cell). ICso values were calculated by concentration-response curve fitting using a SoftMax pro-based four-parameter method. Each IC50 value was expressed as mean±SD from three separate experiments.

SUP-M2 cells = assay: Cell proliferation assay, SUP-M2 cells (CCK-8); assay type: cell-based; settings: 72 h exposure, Cell Counting Kit-8 assay
Experimental: as §1

Row | IC50 (NCI-H3122 cells) [nM] | SMILES | IC50 (SUP-M2 cells) [nM]
1 | 52.6 | Cc1cc(Nc2ncnc(Nc3ccccc3S(=O)(=O)C(C)C)n2)c2c(c1C1CCNCC1)C[C@@H](C)O2 [Example 1, (R)—N^2-(2,5-dimethyl-4-(piperidin-4-yl)-2,3-dihydrobenzofuran-7-yl)-N^4-(2-(isopropylsulfonyl)phenyl)-1,3,5-triazine-2,4-diamine] | 99.3
2 | 134 | Cc1cc(Nc2ncnc(Nc3ccccc3S(=O)(=O)C(C)C)n2)c2c(c1C1CCN(C(=O)CN)CC1)C[C@@H](C)O2 [Example 10, (R)-2-amino-1-(4-(7-((4-((2-(isopropylsulfonyl)phenyl)amino)-1,3,5-triazin-2-yl)amino)-2,5-dimethyl-2,3-dihydrobenzofuran-4-yl)piperidin-1-yl)ethan-1-one] | 79.6
3 |  | CCOC(=O)CN1CCC(c2c(C)cc(Nc3ncnc(Nc4ccccc4S(=O)(=O)C(C)C)n3)c3c2C[C@@H](C)O3)CC1 [Example 6, Ethyl (R)-2-(4-(7-((4-((2-(isopropylsulfonyl)phenyl)amino)-1,3,5-triazin-2-yl)amino)-2,5-dimethyl-2,3-dihydrobenzofuran-4-yl)piperidin-1-yl)acetate] | 111 to 333
4 |  | Cc1cc(Nc2ncnc(Nc3ccccc3S(=O)(=O)C(C)C)n2)c2c(c1C1CCN(S(C)(=O)=O)CC1)C[C@@H](C)O2 [Example 4, (R)—N^2-(2,5-dimethyl-4-(1-(methylsulfonyl)piperidin-4-yl)-2,3-dihydrobenzofuran-7-yl)-N^4-(2-(isopropylsulfonyl)phenyl)-1,3,5-triazine-2,4-diamine] | 111 to 333
5 | 20.8 | Cc1cc(Nc2ncnc(Nc3ccccc3S(=O)(=O)C(C)C)n2)c2c(c1C1CCN(C)CC1)C[C@@H](C)O2 [Example 2, (R)—N^2-(2,5-dimethyl-4-(1-methylpiperidin-4-yl)-2,3-dihydrobenzofuran-7-yl)-N^4-(2-(isopropyl-sulfonyl)phenyl)-1,3,5-triazine-2,4-diamine] | 54.4
6 |  | Cc1cc(Nc2ncnc(Nc3ccccc3S(=O)(=O)C(C)C)n2)c2c(c1C1CCN(CCS(C)(=O)=O)CC1)C[C@@H](C)O2 [Example 8, (R)—N^2-(2,5-dimethyl-4-(1-(2-(methylsulfonyl)ethyl)piperidin-4-yl)-2,3-dihydrobenzofuran-7-yl)-N^4-(2-(isopropylsulfonyl)phenyl)-1,3,5-triazine-2,4-diamine] | 111 to 333
7 | 14.4 | CC(=O)N1CCC(c2c(C)cc(Nc3ncnc(Nc4ccccc4S(=O)(=O)C(C)C)n3)c3c2C[C@@H](C)O3)CC1 [Example 3, (R)-1-(4-(7-((4-((2-(isopropylsulfonyl)phenyl)amino)-1,3,5-triazin-2-yl)amino)-2,5-dimethyl-2,3-dihydrobenzofuran-4-yl)piperidin-1-yl)ethan-1-one] | 50.4
8 | 25.7 | Cc1cc(Nc2ncnc(Nc3ccccc3S(=O)(=O)C(C)C)n2)c2c(c1C1CCN(C(=O)[C@H](C)N)CC1)C[C@@H](C)O2 [Example 11, (S)-2-amino-1-(4-((R)-7-((4-((2-(isopropylsulfonyl)phenyl)amino)-1,3,5-triazin-2-yl)amino)-2,5-dimethyl-2,3-dihydrobenzofuran-4-yl)piperidin-1-yl)propan-1-one] | 67.1
9 | 57.7 | Cc1cc(Nc2ncnc(Nc3ccccc3S(=O)(=O)C(C)C)n2)c2c(c1C1CCN(CCO)CC1)C[C@@H](C)O2 [Example 5, (R)-2-(4-(7-((4-((2-(isopropylsulfonyl)phenyl)amino)-1,3,5-triazin-2-yl)amino)-2,5-dimethyl-2,3-dihydrobenzofuran-4-yl)piperidin-1-yl)ethan-1-ol] | 70
10 | 15.9 | Cc1cc(Nc2ncnc(Nc3ccccc3S(=O)(=O)C(C)C)n2)c2c(c1C1CCN(C(=O)CO)CC1)C[C@@H](C)O2 [Example 9, (R)-2-hydroxy-1-(4-(7-((4-((2-(isopropylsulfonyl)phenyl)amino)-1,3,5-triazin-2-yl)amino)-2,5-dimethyl-2,3-dihydrobenzofuran-4-yl)piperidin-1-yl)ethan-1-one] | 33.7
11 |  | Cc1cc(Nc2ncnc(Nc3ccccc3S(=O)(=O)C(C)C)n2)c2c(c1C1CCN(CC(=O)N(C)C)CC1)C[C@@H](C)O2 [Example 7, (R)-2-(4-(7-((4-((2-(isopropylsulfonyl)phenyl)amino)-1,3,5-triazin-2-yl)amino)-2,5-dimethyl-2,3-dihydrobenzofuran-4-yl)piperidin-1-yl)-N,N-dimethylacetamide] | 111 to 333
